Test results from the kinase profiling compilation of Christmann-Franck et al. (2016).

Columns and labels:
Test in all cases: Caliper, Mobility shift assay off-chip
Conditions in all cases: compound 1.0 µM
[1] = molecular target: ALK (human) (UniProt Q9UM73)
[2] = molecular target: CHEK1 (human) (UniProt O14757)
[3] = molecular target: MAPK14 (human) (UniProt Q16539)
[4] = molecular target: PRKCG (human) (UniProt P05129)
[5] = molecular target: AKT1 (human) (UniProt P31749)
[6] = molecular target: MAPKAPK5 (human) (UniProt Q8IW41)
Sequence of MAPKAPK5 (human) (Q8IW41 whole entry, looked up): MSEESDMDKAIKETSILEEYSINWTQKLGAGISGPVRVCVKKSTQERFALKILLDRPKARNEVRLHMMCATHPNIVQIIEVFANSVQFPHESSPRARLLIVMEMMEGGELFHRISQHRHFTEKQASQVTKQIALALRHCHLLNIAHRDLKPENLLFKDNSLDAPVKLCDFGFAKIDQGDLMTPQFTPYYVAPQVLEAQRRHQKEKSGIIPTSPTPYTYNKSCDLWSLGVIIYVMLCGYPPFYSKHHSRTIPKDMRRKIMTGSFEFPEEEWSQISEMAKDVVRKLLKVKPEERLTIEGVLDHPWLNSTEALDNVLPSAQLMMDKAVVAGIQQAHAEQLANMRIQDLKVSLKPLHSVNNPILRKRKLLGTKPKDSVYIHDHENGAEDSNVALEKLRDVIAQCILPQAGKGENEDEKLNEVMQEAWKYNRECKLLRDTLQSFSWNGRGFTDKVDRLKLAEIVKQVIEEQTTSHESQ

[7] = molecular target: ROCK1 (human) (UniProt Q13464)
[8] = molecular target: PIM1 (human) (UniProt P11309)
[9] = molecular target: ZAP70 (human) (UniProt P43403)
[10] = molecular target: BRSK2 (human) (UniProt Q8IWQ3)
[11] = molecular target: FLT3 (human) (UniProt P36888)
[12] = molecular target: MAP3K7 (human) (UniProt O43318)
Sequence of MAP3K7 (human) (O43318 whole entry, looked up): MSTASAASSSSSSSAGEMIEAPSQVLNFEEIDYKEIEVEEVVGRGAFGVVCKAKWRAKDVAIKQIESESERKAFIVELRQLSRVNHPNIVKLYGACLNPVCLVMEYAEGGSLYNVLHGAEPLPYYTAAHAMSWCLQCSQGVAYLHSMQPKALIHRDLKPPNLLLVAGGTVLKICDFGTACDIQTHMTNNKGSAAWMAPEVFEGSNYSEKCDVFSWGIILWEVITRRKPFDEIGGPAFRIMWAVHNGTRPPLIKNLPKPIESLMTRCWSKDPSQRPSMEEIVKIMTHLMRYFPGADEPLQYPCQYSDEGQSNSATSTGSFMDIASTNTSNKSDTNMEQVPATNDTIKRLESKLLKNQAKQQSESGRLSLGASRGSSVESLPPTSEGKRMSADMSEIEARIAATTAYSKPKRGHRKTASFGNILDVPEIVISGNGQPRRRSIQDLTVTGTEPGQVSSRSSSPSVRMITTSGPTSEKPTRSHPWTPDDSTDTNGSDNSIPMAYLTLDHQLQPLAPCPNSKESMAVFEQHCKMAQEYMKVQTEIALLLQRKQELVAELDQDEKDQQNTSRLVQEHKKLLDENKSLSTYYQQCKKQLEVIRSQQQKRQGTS

[13] = molecular target: MAPK8 (human) (UniProt P45983)
[14] = molecular target: EPHA2 (human) (UniProt P29317)
[15] = molecular target: EGFR (human) (UniProt P00533)
[16] = molecular target: CDK2 CCNA2 (human) (UniProt P24941+P20248)
[17] = molecular target: MAPK13 (human) (UniProt O15264)
[18] = molecular target: IGF1R (human) (UniProt P08069)
Sequence of IGF1R (human) (P08069 whole entry, looked up): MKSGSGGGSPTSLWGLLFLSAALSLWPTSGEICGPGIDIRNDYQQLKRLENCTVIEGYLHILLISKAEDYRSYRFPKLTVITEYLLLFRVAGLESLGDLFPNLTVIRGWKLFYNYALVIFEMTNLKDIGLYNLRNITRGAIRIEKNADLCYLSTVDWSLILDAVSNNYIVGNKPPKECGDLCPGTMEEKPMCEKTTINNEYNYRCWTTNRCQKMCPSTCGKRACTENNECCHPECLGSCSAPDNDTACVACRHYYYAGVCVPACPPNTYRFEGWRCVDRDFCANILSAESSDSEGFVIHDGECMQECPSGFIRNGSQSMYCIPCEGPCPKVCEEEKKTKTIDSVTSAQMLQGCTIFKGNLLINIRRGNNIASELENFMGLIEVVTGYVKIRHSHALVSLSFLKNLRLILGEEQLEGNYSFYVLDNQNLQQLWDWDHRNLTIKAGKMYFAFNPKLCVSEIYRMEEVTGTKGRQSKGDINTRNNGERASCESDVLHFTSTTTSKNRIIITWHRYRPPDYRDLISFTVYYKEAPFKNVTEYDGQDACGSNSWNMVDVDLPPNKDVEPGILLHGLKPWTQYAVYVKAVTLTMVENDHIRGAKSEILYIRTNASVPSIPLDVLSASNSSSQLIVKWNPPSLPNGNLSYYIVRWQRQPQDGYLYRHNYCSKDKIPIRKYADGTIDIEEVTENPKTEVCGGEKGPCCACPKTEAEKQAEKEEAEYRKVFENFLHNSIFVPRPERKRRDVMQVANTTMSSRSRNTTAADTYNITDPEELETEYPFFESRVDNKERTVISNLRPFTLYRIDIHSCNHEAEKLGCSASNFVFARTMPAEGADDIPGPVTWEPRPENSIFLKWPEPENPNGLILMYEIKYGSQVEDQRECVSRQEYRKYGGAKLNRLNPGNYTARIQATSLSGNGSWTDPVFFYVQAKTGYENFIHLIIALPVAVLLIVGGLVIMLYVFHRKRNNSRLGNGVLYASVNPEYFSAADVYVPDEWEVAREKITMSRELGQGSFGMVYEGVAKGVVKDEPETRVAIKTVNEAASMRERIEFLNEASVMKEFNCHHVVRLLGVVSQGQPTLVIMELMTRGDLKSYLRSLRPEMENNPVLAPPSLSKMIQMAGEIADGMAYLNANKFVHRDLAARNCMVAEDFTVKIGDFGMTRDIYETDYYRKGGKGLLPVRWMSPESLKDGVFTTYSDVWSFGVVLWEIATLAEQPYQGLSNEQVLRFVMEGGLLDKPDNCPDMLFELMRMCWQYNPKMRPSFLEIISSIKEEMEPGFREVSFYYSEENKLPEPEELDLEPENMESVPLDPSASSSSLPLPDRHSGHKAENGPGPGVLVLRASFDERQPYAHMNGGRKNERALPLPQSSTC

[19] = molecular target: RPS6KB1 (human) (UniProt P23443)
[20] = molecular target: KDR (human) (UniProt P35968)
[21] = molecular target: SRC (human) (UniProt P12931)
[22] = molecular target: PAK4 (human) (UniProt O96013)
[23] = molecular target: RPS6KA5 KD1 KD2 (human) (UniProt O75582)
[24] = molecular target: MAPK11 (human) (UniProt Q15759)
[25] = molecular target: RPS6KA1 KD1 KD2 (human) (UniProt Q15418)
[26] = molecular target: KIT (human) (UniProt P10721)
[27] = molecular target: NEK6 (human) (UniProt Q9HC98)
[28] = molecular target: FGFR1 (human) (UniProt P11362)
[29] = molecular target: PLK3 (human) (UniProt Q9H4B4)
[30] = molecular target: PIM2 (human) (UniProt Q9P1W9)
[31] = molecular target: NEK2 (human) (UniProt P51955)
[32] = molecular target: PRKCA (human) (UniProt P17252)
[33] = molecular target: MAPKAPK2 (human) (UniProt P49137)
Sequence of MAPKAPK2 (human) (P49137 whole entry, looked up): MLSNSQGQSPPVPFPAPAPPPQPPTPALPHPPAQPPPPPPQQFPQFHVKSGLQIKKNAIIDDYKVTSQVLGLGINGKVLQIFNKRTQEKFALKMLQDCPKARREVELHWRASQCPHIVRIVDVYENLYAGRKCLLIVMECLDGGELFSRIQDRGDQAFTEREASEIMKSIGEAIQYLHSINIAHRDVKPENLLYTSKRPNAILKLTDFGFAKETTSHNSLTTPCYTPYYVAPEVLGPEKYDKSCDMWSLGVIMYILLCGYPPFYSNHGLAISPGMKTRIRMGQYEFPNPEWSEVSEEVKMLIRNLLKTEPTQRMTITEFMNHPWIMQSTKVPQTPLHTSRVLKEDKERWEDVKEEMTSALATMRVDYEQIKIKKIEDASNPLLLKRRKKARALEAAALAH

[34] = molecular target: BTK (human) (UniProt Q06187)
[35] = molecular target: TEK (human) (UniProt Q02763)
[36] = molecular target: RIPK2 (human) (UniProt O43353)
[37] = molecular target: EPHA4 (human) (UniProt P54764)
[38] = molecular target: PRKCI (human) (UniProt P41743)
[39] = molecular target: FGFR3 (human) (UniProt P22607)
Sequence of FGFR3 (human) (P22607 whole entry, looked up): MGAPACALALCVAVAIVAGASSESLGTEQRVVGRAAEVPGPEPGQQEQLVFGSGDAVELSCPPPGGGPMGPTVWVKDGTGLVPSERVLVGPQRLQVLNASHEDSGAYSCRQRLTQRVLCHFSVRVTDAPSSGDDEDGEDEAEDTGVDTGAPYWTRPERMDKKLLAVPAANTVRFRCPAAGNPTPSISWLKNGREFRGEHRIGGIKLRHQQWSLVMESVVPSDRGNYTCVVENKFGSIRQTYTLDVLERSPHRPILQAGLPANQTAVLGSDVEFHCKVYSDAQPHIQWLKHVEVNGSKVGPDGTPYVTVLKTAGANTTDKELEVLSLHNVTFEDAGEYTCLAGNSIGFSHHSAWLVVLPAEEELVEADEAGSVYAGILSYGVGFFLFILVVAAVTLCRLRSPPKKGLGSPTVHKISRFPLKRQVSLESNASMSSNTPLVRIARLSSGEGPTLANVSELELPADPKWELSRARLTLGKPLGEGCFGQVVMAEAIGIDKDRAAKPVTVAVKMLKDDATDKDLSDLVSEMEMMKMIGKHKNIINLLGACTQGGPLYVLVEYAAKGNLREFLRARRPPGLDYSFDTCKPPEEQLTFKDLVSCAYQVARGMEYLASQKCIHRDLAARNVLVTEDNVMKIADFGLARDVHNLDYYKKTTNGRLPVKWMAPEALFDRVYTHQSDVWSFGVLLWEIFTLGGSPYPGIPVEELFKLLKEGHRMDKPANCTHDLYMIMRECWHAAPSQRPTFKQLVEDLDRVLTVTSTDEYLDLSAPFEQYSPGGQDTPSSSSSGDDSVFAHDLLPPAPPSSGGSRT

[40] = molecular target: MAPK12 (human) (UniProt P53778)
Sequence of MAPK12 (human) (P53778 whole entry, looked up): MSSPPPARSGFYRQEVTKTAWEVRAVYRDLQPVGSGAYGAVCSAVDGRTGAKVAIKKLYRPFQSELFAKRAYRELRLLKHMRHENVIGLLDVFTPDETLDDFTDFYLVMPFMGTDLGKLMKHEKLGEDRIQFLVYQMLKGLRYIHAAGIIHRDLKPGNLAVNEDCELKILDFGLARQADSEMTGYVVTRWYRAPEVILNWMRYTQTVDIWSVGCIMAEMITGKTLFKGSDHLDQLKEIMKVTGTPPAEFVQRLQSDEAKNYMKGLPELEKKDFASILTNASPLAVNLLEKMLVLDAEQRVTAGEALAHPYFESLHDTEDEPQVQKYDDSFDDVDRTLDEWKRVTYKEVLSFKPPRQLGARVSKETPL

[41] = molecular target: RAF1 (human) (UniProt P04049)

Sequence of CHEK1 (human) (O14757 whole entry, looked up): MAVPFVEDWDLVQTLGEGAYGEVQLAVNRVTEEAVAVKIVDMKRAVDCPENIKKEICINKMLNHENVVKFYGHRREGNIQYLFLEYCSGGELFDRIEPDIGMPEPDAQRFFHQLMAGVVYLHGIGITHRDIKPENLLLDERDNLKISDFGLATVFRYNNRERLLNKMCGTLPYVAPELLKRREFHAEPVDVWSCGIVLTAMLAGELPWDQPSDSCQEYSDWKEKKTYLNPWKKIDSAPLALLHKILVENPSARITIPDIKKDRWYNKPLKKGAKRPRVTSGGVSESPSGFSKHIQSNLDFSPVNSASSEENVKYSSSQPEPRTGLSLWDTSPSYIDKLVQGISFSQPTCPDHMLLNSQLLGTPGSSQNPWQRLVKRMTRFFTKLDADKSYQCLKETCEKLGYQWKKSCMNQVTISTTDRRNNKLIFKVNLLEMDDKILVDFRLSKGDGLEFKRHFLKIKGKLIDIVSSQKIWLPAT
Sequence of MAPK14 (human) (Q16539 whole entry, looked up): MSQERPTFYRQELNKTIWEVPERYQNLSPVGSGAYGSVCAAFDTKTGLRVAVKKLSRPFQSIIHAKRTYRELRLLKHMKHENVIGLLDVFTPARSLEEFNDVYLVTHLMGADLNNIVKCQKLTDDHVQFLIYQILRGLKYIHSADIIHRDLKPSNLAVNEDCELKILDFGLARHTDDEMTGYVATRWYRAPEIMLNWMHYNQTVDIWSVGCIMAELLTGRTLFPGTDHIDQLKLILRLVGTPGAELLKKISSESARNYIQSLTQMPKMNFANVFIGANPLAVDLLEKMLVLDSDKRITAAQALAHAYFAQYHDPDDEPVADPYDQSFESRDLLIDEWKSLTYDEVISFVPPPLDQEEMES

With `Cc1n[nH]c2c1c(=O)n(CCCN)c1ccc(Cl)cc21` the residual activity [1] was 116%, the residual activity [2] was 5% and the residual activity [3] was 94%. The residual activity [4] was 75%, the residual activity [5] was 102% and the residual activity [6] was 80%. It also gave a residual activity [7] of 66%, a residual activity [8] of 97% and a residual activity [9] of 114%. It also gave a residual activity [10] of 18%, a residual activity [11] of 25% and a residual activity [12] of 56%. It also gave a residual activity [13] of 106%, a residual activity [14] of 107% and a residual activity [15] of 110%. For the same compound, the residual activity [16] was 104%, the residual activity [17] was 97% and the residual activity [18] was 145%. For the same compound, the residual activity [19] was 76%, the residual activity [20] was 95% and the residual activity [21] was 104%. The residual activity [22] was 69%, the residual activity [23] was 68% and the residual activity [24] was 99%. For the same compound, the residual activity [25] was 2%, the residual activity [26] was 112% and the residual activity [27] was 101%. For the same compound, the residual activity [28] was 43%, the residual activity [29] was 95% and the residual activity [30] was 92%. It also gave a residual activity [31] of 118%, a residual activity [32] of 107% and a residual activity [33] of 88%. The residual activity [34] was 95%, the residual activity [35] was 106% and the residual activity [36] was 93%. For the same compound, the residual activity [37] was 104%, the residual activity [38] was 114% and the residual activity [39] was 102%. It also gave a residual activity [40] of 107% and a residual activity [41] of 106%.
`O=C(NCCCNc1nc(Nc2cccc(NC(=O)N3CCCC3)c2)ncc1I)c1cccs1` gave a residual activity [1] of 100%, a residual activity [2] of 54% and a residual activity [3] of 108%. It also gave a residual activity [4] of 86%, a residual activity [5] of 103% and a residual activity [6] of 78%. For the same compound, the residual activity [7] was 96%, the residual activity [8] was 103% and the residual activity [9] was 120%. It also gave a residual activity [10] of 81%, a residual activity [11] of 9% and a residual activity [12] of 32%. It also gave a residual activity [13] of 94%, a residual activity [14] of 127% and a residual activity [15] of 109%. The residual activity [16] was 99%, the residual activity [17] was 115% and the residual activity [18] was 103%. For the same compound, the residual activity [19] was 85%, the residual activity [20] was 106% and the residual activity [21] was 86%. For the same compound, the residual activity [22] was 99%, the residual activity [23] was 93% and the residual activity [24] was 85%. The residual activity [25] was 83%, the residual activity [26] was 100% and the residual activity [27] was 114%. It also gave a residual activity [28] of 48%, a residual activity [29] of 111% and a residual activity [30] of 91%. It also gave a residual activity [31] of 93%, a residual activity [32] of 98% and a residual activity [33] of 96%. For the same compound, the residual activity [34] was 94%, the residual activity [35] was 95% and the residual activity [36] was 111%. For the same compound, the residual activity [37] was 100%, the residual activity [38] was 121% and the residual activity [39] was 88%. The residual activity [40] was 98% and the residual activity [41] was 94%.
